This assay concerns the target T1, IRAK4 (Homo sapiens, UniProt Q9NWZ3).
T1 construct: endogenous in cells; host or cells: OCI-LY10
T1 sequence (Q9NWZ3 1-460): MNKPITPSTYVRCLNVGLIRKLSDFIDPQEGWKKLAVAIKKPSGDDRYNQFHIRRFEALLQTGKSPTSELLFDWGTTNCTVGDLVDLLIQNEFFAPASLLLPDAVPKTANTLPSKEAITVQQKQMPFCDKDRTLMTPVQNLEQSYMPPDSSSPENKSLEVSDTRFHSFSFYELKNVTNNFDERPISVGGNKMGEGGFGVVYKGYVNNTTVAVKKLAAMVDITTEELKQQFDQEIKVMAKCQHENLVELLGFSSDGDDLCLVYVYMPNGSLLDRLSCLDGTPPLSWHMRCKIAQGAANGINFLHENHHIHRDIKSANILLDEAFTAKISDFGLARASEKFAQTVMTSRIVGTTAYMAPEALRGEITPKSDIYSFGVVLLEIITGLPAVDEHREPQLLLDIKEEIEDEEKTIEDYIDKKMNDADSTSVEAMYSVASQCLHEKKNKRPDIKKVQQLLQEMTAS
Kind of assay: IRAK4 MSD degradation in OCI-LY10. Conditions: OCI-LY10 cells, 24 hrs, Meso Scale Discovery. Format: cell-based. How it is done: Degradation of IRAK4 in OCI-LY10 was quantitatively measured using Meso Scale Discovery technology. […] Compounds were then added to the assay plates with a final top concentration of 1 to 10 μM in a 1:3 dilution series with total of 8 doses. The assay plates were then incubated for 4 to 24 hours at 37° C. under 5% CO2. […] To prepare MSD assay plates (Meso Scale Discovery Catalog number L15XA-3), the plates were coated with 2 μg/mL capture antibody (mouse Anti-IRAK4 antibody [2H9], ab119942) in PBS, at 40 μL/well. […] Cell lysates were then added to MSD assay plates and the plates were incubated at room temperature for 1 hour. The plates were then washed 3 times with 150 μL/well TBST buffer and 25 μL/well primary detection antibody (rabbit Anti-IRAK4 antibody [Y279], from Abcam. Catalog number ab32511, 1 μg/mL). The assay plates were then incubated at room temperature for 1 hour, washed 3 times with 150 μL/well TBST buffer and 25 μL/well secondary detection antibody, SULFO-TAG anti-rabbit antibody were added (anti-rabbit antibody from Meso Scale Discovery, Catalog number R32AB-1, 1 μg/mL). The assay plates were then incubated at room temperature for 1 hour, washed 3 times with 150 μL/well TBST buffer, and 150 μL/well MSD reading buffer (Meso Scale Discovery catalog number R92TC-2) was added. The plates were then analyzed by a MSD reader (Meso Scale Discovery, Model Quick Plex SQ 120). The data was then analyzed by software Prism 7.0 from GraphPad and the dose-depended IRAK4 degradation were fit using a three-parameter logistic equation to calculate DC50.
The letter codes for IRAK4 DC50 include: A (<0.01 μM); B (0.01 to <0.1 μM); C (0.1 to 0.2 μM); D (>0.2 μM) and E (not tested).
`CN(C[C@H]1C[C@@H](n2cc(NC(=O)c3cnn4ccc(N5C[C@H]6C[C@@H]5CO6)nc34)c(C(F)F)n2)C1)[C@H]1CCN(c2cccc3c2n(C)c(=O)n3C2CCC(=O)NC2=O)C[C@@H]1F` (single isomer, unassigned) [I-4] came in with a DC50 below 10 nM.

In turn, `CN(C[C@H]1C[C@H](n2cc(NC(=O)c3cnn4ccc(N5C[C@H]6C[C@@H]5CO6)nc34)c(C(F)F)n2)C1)[C@H]1CCN(c2cccc3c2n(C)c(=O)n3C2CCC(=O)NC2=O)C[C@@H]1F` (single isomer, unassigned) [I-6] had a DC50 below 10 nM.

`Cn1c(=O)n(C2CCC(=O)NC2=O)c2cccc([C@H]3CCN(C[C@H]4CC[C@H](n5cc6cc(NC(=O)c7cccc(C(F)(F)F)n7)ccc6n5)CC4)C[C@@H]3F)c21` (single isomer, unassigned) [I-11] had a half-maximal degradation concentration (DC50) below 10 nM.

`Cn1c(=O)n(C2CCC(=O)NC2=O)c2cccc([C@@H]3CCN(C[C@H]4CC[C@H](n5cc6cc(NC(=O)c7cccc(C(F)(F)F)n7)ccc6n5)CC4)C[C@H]3F)c21` (single isomer, unassigned) [I-12] yielded a half-maximal degradation concentration (DC50) below 10 nM.

Molecule `CN(C[C@H]1CC[C@H](n2cc(NC(=O)c3cnn4ccc(N5C[C@H]6C[C@@H]5CO6)nc34)c(C(F)F)n2)CC1)[C@@H]1CCN(c2cccc3c2n(C)c(=O)n3C2CCC(=O)NC2=O)C[C@@H]1F` (single isomer, unassigned) [I-29] gave a DC50 below 10 nM.

`CN(C[C@H]1CC[C@H](n2cc3cc(NC(=O)c4cccc(C(F)(F)F)n4)ncc3n2)CC1)[C@H]1CCN(c2cccc3c2n(C)c(=O)n3C2CCC(=O)NC2=O)C[C@@H]1F` (single isomer, unassigned) [I-36] gave a DC50 of 10 to 100 nM.

The molecule `CN(C[C@H]1C[C@H](n2cc(NC(=O)c3cnn4ccc(N5C[C@H]6C[C@@H]5CO6)nc34)c(C(F)F)n2)C1)[C@@H]1CCN(c2cccc3c2n(C)c(=O)n3C2CCC(=O)NC2=O)C[C@@H]1F` (single isomer, unassigned) [I-59] had a DC50 below 10 nM.

`CN(C[C@H]1C[C@H](n2cc(NC(=O)c3cnn4ccc(N5C[C@H]6C[C@@H]5CO6)nc34)c(C(F)F)n2)C1)[C@H]1CCN(c2cccc3c2n(C)c(=O)n3C2CCC(=O)NC2=O)C[C@H]1F` (single isomer, unassigned) [I-60] showed a DC50 below 10 nM.

In the case of `O=C1CCC(Nc2ccc(N3CC(CO[C@@H]4CCN(C[C@H]5CC[C@H](n6cc(NC(=O)c7cnn8ccc(N9C[C@H]%10C[C@@H]9CO%10)nc78)c(C(F)F)n6)CC5)C[C@@H]4F)C3)cc2)C(=O)N1` (single isomer, unassigned) [I-73], the half-maximal degradation concentration (DC50) was in the range of 10 to 100 nM.

Regarding `O=C1CCN(c2cncc3c(N4CC(CO[C@H]5CCN(C[C@H]6CC[C@H](n7cc(NC(=O)c8cnn9ccc(N%10C[C@H]%11C[C@@H]%10CO%11)nc89)c(C(F)F)n7)CC6)C[C@@H]5F)C4)cccc23)C(=O)N1` (single isomer, unassigned) [I-75], the 50% degradation concentration (DC50) lay in the range of 10 to 100 nM.

As for `COc1cc2nc([C@H]3CC[C@H](CN4CC[C@@H](c5cccc6c5n(C)c(=O)n6C5CCC(=O)NC5=O)[C@H](F)C4)CC3)sc2cc1NC(=O)c1cccc(C(F)(F)F)n1` (single isomer, unassigned) [I-78], the DC50 was in the range of 100 to 200 nM.

In turn, `COc1cc2nc([C@H]3CC[C@H](CN4CC[C@H](c5cccc6c5n(C)c(=O)n6C5CCC(=O)NC5=O)[C@@H](F)C4)CC3)sc2cc1NC(=O)c1cccc(C(F)(F)F)n1` (single isomer, unassigned) [I-79] yielded a DC50 above 200 nM.

Molecule `O=C1CCC(Nc2ccc(N3CC(CO[C@H]4CCN(C[C@H]5CC[C@H](n6cc(NC(=O)c7cnn8ccc(N9C[C@H]%10C[C@@H]9CO%10)nc78)c(C(F)F)n6)CC5)C[C@@H]4F)C3)cc2)C(=O)N1` (single isomer, unassigned) [I-85] had a DC50 of 10 to 100 nM.

Consider `COc1cc2nc([C@H]3CC[C@H](CN4CC[C@H](c5cccc6c5n(C)c(=O)n6C5CCC(=O)NC5=O)[C@@H](F)C4)CC3)oc2cc1NC(=O)c1cccc(C(F)(F)F)n1` (single isomer, unassigned) [I-89], for which the DC50 was above 200 nM.

Molecule `Cn1c(=O)n(C2CCC(=O)NC2=O)c2cccc([C@@H]3CCN(C[C@H]4CC[C@H](n5cc6cc(NC(=O)c7cccc(C(F)(F)F)n7)c(C#N)cc6n5)CC4)C[C@H]3F)c21` (single isomer, unassigned) [I-95] returned a DC50 below 10 nM.

`Cn1c(=O)n(C2CCC(=O)NC2=O)c2cccc([C@H]3CCN(C[C@H]4CC[C@H](n5cc6cc(NC(=O)c7cccc(C(F)(F)F)n7)c(C#N)cc6n5)CC4)C[C@@H]3F)c21` (single isomer, unassigned) [I-96] returned a DC50 below 10 nM.

In the case of `COc1cc2nc([C@H]3CC[C@H](CN(C)[C@@H]4CCN(c5cccc6c5n(C)c(=O)n6C5CCC(=O)NC5=O)C[C@H]4F)CC3)sc2cc1NC(=O)c1cccc(C(F)(F)F)n1` (single isomer, unassigned) [I-98], the DC50 was in the range of 10 to 100 nM.

Consider `COc1cc2nc([C@H]3CC[C@H](CN(C)[C@@H]4CCN(c5cccc6c5n(C)c(=O)n6C5CCC(=O)NC5=O)C[C@@H]4F)CC3)sc2cc1NC(=O)c1cccc(C(F)(F)F)n1` (single isomer, unassigned) [I-99], for which the 50% degradation concentration (DC50) was below 10 nM.

In turn, `COc1cc2nn([C@H]3CC[C@H](CN4CC[C@H](c5cccc6c5n(C)c(=O)n6C5CCC(=O)NC5=O)[C@@H](F)C4)CC3)cc2cc1NC(=O)c1cncc(C#N)c1` (single isomer, unassigned) [I-100] displayed a DC50 below 10 nM.

In turn, `COc1cc2nn([C@H]3CC[C@H](CN4CC[C@@H](c5cccc6c5n(C)c(=O)n6C5CCC(=O)NC5=O)[C@H](F)C4)CC3)cc2cc1NC(=O)c1cncc(C#N)c1` (single isomer, unassigned) [I-101] returned a 50% degradation concentration (DC50) below 10 nM.

In turn, `COc1cc2nc([C@H]3CC[C@H](CN4CC[C@@H](c5cccc6c5n(C)c(=O)n6C5CCC(=O)NC5=O)[C@H](F)C4)CC3)oc2cc1NC(=O)c1cccc(C(F)(F)F)n1` (single isomer, unassigned) [I-121] displayed a DC50 of 10 to 100 nM.

`CN(C[C@H]1CC[C@H](n2cc(NC(=O)c3cnn4ccc(N5C[C@H]6C[C@@H]5CO6)nc34)c(C(F)F)n2)CC1)[C@H]1CCN(c2cccc3c2n(C)c(=O)n3[C@@H]2CCC(=O)NC2=O)C[C@@H]1F` (single isomer, unassigned) [I-143] registered a DC50 below 10 nM.

On to `CN(C[C@H]1CC[C@H](n2cc(NC(=O)c3cnn4ccc(N5C[C@H]6C[C@@H]5CO6)nc34)c(C(F)F)n2)CC1)[C@H]1CCN(c2cccc3c2n(C)c(=O)n3[C@H]2CCC(=O)NC2=O)C[C@@H]1F` (single isomer, unassigned) [I-144], for which the DC50 was below 10 nM.

`CN(C[C@H]1CC[C@H](n2cc(NC(=O)c3cnn4cccnc34)c(C(F)F)n2)CC1)[C@H]1CCN(c2cccc3c2n(C)c(=O)n3C2CCC(=O)NC2=O)C[C@H]1F` (single isomer, unassigned) [I-145] registered a 50% degradation concentration (DC50) below 10 nM.

In the case of `COc1ccc2c(c1N1CC[C@H](N(C)C[C@H]3CC[C@H](n4cc(NC(=O)c5cnn6cccnc56)c(C(F)F)n4)CC3)[C@@H](F)C1)n(C)c(=O)n2C1CCC(=O)NC1=O` (single isomer, unassigned) [I-146], the half-maximal degradation concentration (DC50) is below 10 nM.

`COc1ccc2c(c1N1CC[C@H](N(C)C[C@H]3CC[C@H](n4cc(NC(=O)c5cnn6cccnc56)c(C(F)F)n4)CC3)[C@H](F)C1)n(C)c(=O)n2C1CCC(=O)NC1=O` (single isomer, unassigned) [I-147] showed a DC50 below 10 nM.

These data come from patent US20250059164A1, “IRAK DEGRADERS AND USES THEREOF” (Kymera Therapeutics, Inc., priority 2023, published 2025).
